How the values were obtained:
Protein X [1] = assay: Biacore binding to Protein X
Protein X [2] = assay: IC50 result for Protein X (independent biochemical assay)
Protein X [3] = assay: SHG (Biodesy) titration of ligands on Protein X bound to a supported lipid bilayer; type: binding; conditions: Protein X on SLB; endpoint mode after 3 minutes of exposure; average of different days
Method: PyMPO-SE is coupled to His-tagged Protein X using the protocol described in the above Examples. Unreacted dye is purified by gel filtration. The resulting dye:protein ratio is determined spectrophotometrically. The supported bilayer membrane with Ni-NTA lipid is prepared as described in the Examples above. Recombinant His-tagged Protein X is incubated with the lipid bilayer at 5 μM for 20 minutes to produce a baseline signal following wash-out of unbound Protein X. A single ligand (denoted 3, 4 or 5) is exposed to Protein X on the surface and changes to the baseline SHG signal are measured in real time. A titration of the shift in SHG signal for each of the ligands as a function of ligand concentration is performed in endpoint mode, comparing the SHG signal after 3 minutes of exposure to the ligand at a given concentration to the baseline signal before exposure to the ligand.

GTP-bound K-RAS = GTP-bound K-RAS (Homo sapiens, UniProt P01116); conditions: previously shown, Grant et al., 2011; cited from earlier work
GTP-bound K-RAS, sequence (P01116 1-188 isoform P01116-2): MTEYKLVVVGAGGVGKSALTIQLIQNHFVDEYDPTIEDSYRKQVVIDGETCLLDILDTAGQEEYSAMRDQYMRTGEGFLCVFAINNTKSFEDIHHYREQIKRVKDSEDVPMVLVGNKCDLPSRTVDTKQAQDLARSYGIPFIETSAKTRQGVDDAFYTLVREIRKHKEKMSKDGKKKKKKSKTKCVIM

G12V K-Ras = target: T1, G12V K-Ras (Homo sapiens, UniProt P01116, G12V); assay: SHG detection of structural change of constitutively active G12V K-Ras; type: binding; conditions: 10 μM; PyMPO-maleimide at Cys 118; FIG. 6B
T1 construct: made in house
T1 sequence (P01116 1-188 isoform P01116-2 G12V): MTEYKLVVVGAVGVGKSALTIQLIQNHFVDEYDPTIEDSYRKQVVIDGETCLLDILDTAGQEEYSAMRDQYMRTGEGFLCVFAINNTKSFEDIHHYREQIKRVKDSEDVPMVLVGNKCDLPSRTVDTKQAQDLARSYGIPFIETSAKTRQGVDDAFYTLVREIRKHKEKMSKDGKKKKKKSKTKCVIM
Method: PyMPO-SE is coupled to a G12V constitutively active mutant K-Ras (Abrams et al., Semin Oncol. 1996 February; 23(1):118-34) using one of the two protocols described in Example 3 above. Recombinant His-tagged (N-terminus) Ras proteins are prepared according to standard protocols (Hall et al., 2002, Proc. Nat. Acad. Sci., U.S.A., 99(19):12138-42). The Ras proteins prepared according to this protocol is bound to an SHG-active GTP analog (ATTO-390-GTP) or an SHG label is coupled to Cys 118 with PyMPO-maleimide, a cysteine-reactive dye in 0.1 M Tris pH 8.0, 20 mM NaCl, 0.5 mM TCEP, 5% glycerol and a 12:1 dye:protein ratio for one hour at room temperature. Unreacted dye is purified away by gel filtration. The resulting dye:protein ratio is determined spectrophotometrically.
Immobilized G12V mutant K-Ras is then exposed to compound 117028, which has been previously shown to decrease intracellular levels of GTP-bound K-RAS as well as to decrease activation of the Raf/Mek/Erk signaling pathway (Grant et al., 2011, PLoS One, 6(10):e25711, the disclosure of which is incorporated by reference herein). 10 μM of the compound in assay buffer is added over the wells followed by gentle mixing. Assay buffer was 20 mM Tris pH 8.0, 150 mM NaCl, 0.5 mM DTT, 0.15% DMSO. […]

wt H-Ras = target: T2, wt H-Ras (Homo sapiens, UniProt P01112); assay: SHG detection of conformational change of labeled wt H-Ras tethered to a supported lipid bilayer; type: binding; conditions: cysteine-labeled H-Ras, serial dilutions, n=3; read-out: EC50 from SHG concentration response curve
T2 construct: fused on or other part: N-terminal 6x histidine tag, used to tether to Ni-NTA lipids; PyMPO-maleimide dye on native cysteine(s)
T2 sequence (P01112 whole entry, the tested form may be a part): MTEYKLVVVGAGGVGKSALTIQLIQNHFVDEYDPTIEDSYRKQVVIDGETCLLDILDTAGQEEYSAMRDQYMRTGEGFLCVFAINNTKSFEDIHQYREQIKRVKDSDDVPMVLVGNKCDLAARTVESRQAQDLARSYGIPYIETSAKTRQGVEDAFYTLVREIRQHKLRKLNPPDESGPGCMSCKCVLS
Method: Recombinant His-tagged (N-terminus) H-Ras protein was prepared according to standard protocols (6). The Ras protein prepared according to this protocol is bound to GDP. The protein was then labeled with PyMPO-maleimide, a cysteine-reactive dye in 0.1 M Tris pH 8.0, 20 mM NaCl, 0.5 mM TCEP, 5% glycerol and a 12:1 dye:protein ratio for one hour at room temperature. Unreacted dye was purified away by gel filtration. The resulting dye:protein ratio was 0.7:1 was determined spectrophotometrically. Cysteine-labeled Ras was then coupled directly to the membrane.
We labeled Ras using a standard protocol in pH 8.3 sodium bicarbonate buffer (Invitrogen, Inc.) and purified it by gel filtration and dialysis. Amine-labeled Ras was then coupled directly to the membrane.
Immediately before applying DOPC/DGS NTA (Ni) lipids, microscope slides were cleaned with Piranha wash for 20 minutes. […] Lateral mobility of the bilayers was confirmed by fluorescence recovery after photobleaching as known in the art. […]
PyMPO-SE was coupled to His-tagged wt K-Ras (Novus) using one of two protocols. […] The resulting dye:protein ratio was 0.7:1 as determined spectrophotometrically. […]
PyMPO-SE exposed to a blank bilayer (no protein) followed by washing led to no signal above background. Thus, the signal detected in the presence of protein after labeling is due to labeling of the protein itself while immobilized on the membrane. […]

[4] = system: Raf/Mek/Erk signaling pathway; conditions: previously shown, Grant et al., 2011; cited from earlier work

Row | effect on the conformation of G12V K-Ras (SHG), protein labeled at Cys 118 (G12V K-Ras) | EC50 (wt H-Ras) [nM] | SMILES | Biacore Result (Protein X [1]) | IC50 (Protein X [2]) [nM] | EC50 (Protein X [3]) [nM] | intracellular levels of GTP-bound K-RAS (GTP-bound K-RAS) | activation of the Raf/Mek/Erk signaling pathway [4]
1 | – | – | O=C(CN1CCOCC1)NC1=Nc2ncccc2C(=O)NN1 [Compound 3] | Binds | 950 | 670 | – | –
2 | significant effect | 4400 | Oc1c(CN2CCN(c3ccccc3)CC2)cc(Br)c2cccnc12 [Compound 1, 5-bromo-7-[(4-phenylpiperazin-1-yl)methyl]quinolin-8-ol] | – | – | – | decrease | decrease
